Experimental data from patent US5270312A, “Substituted piperazines as central nervous system agents” (Warner-Lambert Company, priority 1991, dated 1993).

Tests used:
[1] = molecular target: [^3 H]-spiroperidol binding (receptor assay); experiment: Inhibition of [^3 H]spiroperidol binding, receptor assay
Method: (§1) The compounds of Formula I are valuable dopaminergic agents. […] Thus, the compounds of Formula I were tested for their ability to inhibit locomotor activity in mice according to the assay described by J. R. McLean, et al, Pharmacology, Biochemistry and Behavior, Volume 8, pages 97-99 (1978); for their ability to inhibit [^3 H]-spiroperidol binding in a receptor assay described by D. Grigoriadis and P. Seeman, Journal of Neurochemistry, Volume 44, pages 1925-1935 (1985); and for their ability to inhibit dopamine synthesis in rats according to the protocol described by J. R. Walters and R. H. Roth, Naunyn-Schmiedeberg's Archives of Pharmacology, Volume 296, pages 5-14 (1976). The above test methods are incorporated herein by reference. The data in the table show the dopaminergic activity of representative compounds of Formula 1.

[2] = tested on: locomotor activity in mice; experiment: Inhibition of locomotor activity in mice; format: in vivo; conditions: Mus musculus, IP
Method: as §1

[3] = tested on: brain dopamine synthesis in rats; experiment: Reversal of brain dopamine synthesis in rats (inhibition of dopamine synthesis); format: in vivo; conditions: 10 mg/kg, IP
Method: as §1

| Compound | IC50 [1] [nM] | ED50 [2] [mg/kg] | % Reversal of Brain Dopamine Synthesis in Rats [3] [%] |
| --- | --- | --- | --- |
| C(#Cc1cnc2ccccc2c1)CCN1CCN(c2ccccn2)CC1 [Example 1, 3-[4-[4-(2-Pyridinyl)-1-piperazinyl]-1-butynyl]-quinoline] | 177 | 1.5 | – |
| Fc1ccc(N2CCN(CCC#Cc3cccnc3)CC2)cc1 [Example 2, 1-(4-Fluorophenyl)-4-[4-(3-pyridinyl)-3-butynyl]-piperazine] | 2330 | 4.7 | 20 |
| C(#Cc1cccnc1)CCN1CCN(c2ccccn2)CC1 [Example 3, 1-(2-Pyridinyl)-4-[4-(3-pyridinyl)-3-butynyl]-piperazine] | 6530 | 2.2 | – |
| O=[N+]([O-])c1ccc(C#CCCN2CCN(c3ccccn3)CC2)nc1 [Example 5, 1-[4-(5-Nitro-2-pyridinyl)-3-butynyl]-4-(2-pyridinyl)piperazine] | > 10000 | 14.1 | – |
| O=[N+]([O-])c1ccc(C#CCCN2CCN(c3ccccn3)CC2)cc1 [Example 6, 1-[4-(4-Nitrophenyl)-3-butynyl]-4-(2-pyridinyl)-piperazine] | 2500 | 7.7 | – |
| Nc1ccc(C#CCCN2CCN(c3ccccn3)CC2)nc1 [Example 7, 6-[4-[4-(2-Pyridinyl)-1-piperazinyl]-1-butynyl]-3-pyridinamine] | 1900 | 0.35 | 24 |
| Nc1ccc(C#CCCN2CCN(c3ccccn3)CC2)cc1 [Example 8, 4-[4-[4-(2-Pyridinyl)-1-piperazinyl]-1-butynyl]-benzenamine] | 611 | 0.56 | 63 |
